Assay results as given in patent US11447504B2, “Macrocyclic chlorine substituted indole derivatives” (Bayer Aktiengesellschaft, priority 2017, dated 2022).
Structures can show the parent of a compound that is named as a salt. Where two headings read alike, the source gives them in different places.

Legend:
[1] = test system: SUDHL10; experiment: Induction of cytotoxicity (Assay 6), SUDHL10
[2] = test system: HMC-1-8; experiment: Antiproliferation assay 7, HMC-1-8; assay type: cell-based; conditions: HMC-1-8 cells, CellTiter-Glo, read-out: Antiproli HMC-1-8 IC50 median
Method: (§1) Assessment of the Anti-Proliferative Effect of Compounds in Different Cell Lines
(§2) The impact of compounds on the proliferation of different cell lines was assessed using the CellTiter-Glo® Luminescent Cell Viability reagent from Promega (G7573).
(§3) In parallel, cells were plated in a reference (day 0) plate for time zero determination.
(§4) Rim wells were excluded. The cells were incubated for 72 hours in a humidified incubator at 37° C. The day 0 plate was measured by adding 30 μL/well of CTG solution (CellTiter-Glo® Luminescent Cell Viability reagent, Promega G7573) to time zero wells in the reference plate followed by a 10 minutes incubation and luminescence reading at 0.1 ms. using the PHERAstar FS microplate reader (BMG Labtech).
(§5) After 72 hours incubation, the treated plates were measured in the same way as the day 0 plate mentioned above.

[3] = test system: SUDHL5; experiment: Antiproliferation assay 7, SUDHL5; assay type: cell-based; conditions: SUDHL5 cells, CellTiter-Glo, read-out: Antiproli SUDHL5 IC50 (median)
Method: as §1, §2, §3, §4, §5

[4] = test system: SUDHL5; experiment: Induction of caspase-3/7 activity (Assay 4), SUDHL5; assay type: cell-based; conditions: SUDHL5 cells
Method: (§6) Induction of Caspase-3/7 Activity Upon Treatment of Cells with Selected Compounds
The BH3-domain of MCL-1 sequesters pro-apoptotic proteins, thereby inhibiting apoptosis. In contrast, MCL-1 inhibitors are expected to antagonize this effect leading to an increase in apoptosis, which can be determined by measuring the activity of caspase-3/7.
(§7) The activity of caspase-3/7 was determined in DLBCL (Diffuse large B-cell lymphoma) cell lines (SUDHL5 and SUDHL10) upon treatment with different compounds, using the Caspase-Glo®3/7 reagent from Promega (G8092).
(§8) Rim wells were excluded. The cells were incubated for 3 hours in a humidified incubator at 37° C.
(§9) For the evaluation of the results, the background measured with “medium-only” was subtracted from all other values.

[5] = test system: AMO-1; experiment: Antiproliferation assay 7, AMO-1; assay type: cell-based; conditions: AMO-1 cells, CellTiter-Glo, read-out: Antiproli AMO-1 IC50 median
Method: as §1, §2, §3, §4, §5

[6] = test system: SUDHL10; experiment: Induction of caspase-3/7 activity (Assay 4), SUDHL10; assay type: cell-based; conditions: SUDHL10 cells
Method: as §6
In contrast, MCL-1 inhibitors are expected to antagonize this effect leading to an increase in apoptosis, which can be determined by measuring the activity of caspase-3/7.
as §7, §8, §9

[7] = test system: SUDHL5; experiment: Induction of cytotoxicity (Assay 6), SUDHL5
[8] = test system: MV-4-11; experiment: Antiproliferation assay 7, MV-4-11; assay type: cell-based; conditions: MV-4-11 cells, 72 hours, CellTiter-Glo; read-out: Antiproli MV-4-11 IC50 median
Method: as §1, §2, §3, §4, §5

[9] = Homo sapiens, SU-DHL10, 5 h, read-out: Cytotox SUDHL10 IC50 (median), SUDHL10 cells, 5 hours, CellTiter-Glo
[10] = Homo sapiens, SU-DHL-5, 3 h, Caspase-Glo 3/7, read-out: Caspase SUDHL5 EC50 (median)
[11] = Homo sapiens, SU-DHL10, 3 h, Caspase-Glo 3/7, read-out: Caspase SUDHL10 EC50 (median)
[12] = Homo sapiens, SU-DHL-5, 5 h, read-out: Cytotox SUDHL5 IC50 (median), SUDHL5 cells, 5 hours, CellTiter-Glo
[13] = read-out: Cytotox SUDHL10 IC50 (median), SUDHL10 cells, 5 hours, CellTiter-Glo
[14] = 3 hours, Caspase-Glo 3/7, read-out: Caspase SUDHL5 EC50 (median)
[15] = 3 hours, Caspase-Glo 3/7, read-out: Caspase SUDHL10 EC50 (median)
[16] = read-out: Cytotox SUDHL5 IC50 (median), SUDHL5 cells, 5 hours, CellTiter-Glo

Row | IC50 ([3]; Homo sapiens, SU-DHL-5, 72 h) [nM] | EC50 [4, 10] [nM] | EC50 [6, 11] [nM] | IC50 ([3]; 72 hours) [nM] | EC50 [4, 14] [nM] | EC50 [6, 15] [nM] | IC50 [8] [nM] | Compound | IC50 [1, 9] [nM] | IC50 ([2]; 72 h) [nM] | IC50 ([5]; Homo sapiens, AMO1, 72 h) [nM] | IC50 [7, 12] [nM] | IC50 [1, 13] [nM] | IC50 ([2]; 72 hours) [nM] | IC50 ([5]; 72 hours) [nM] | IC50 [7, 16] [nM]
1 | 250 | 330 | 440 |  |  |  |  | Cc1c2c(nn1C)CN(CC(F)(F)F)CCCCn1c(C(=O)O)c(CCCOc3cccc4cc(F)ccc34)c3ccc(Cl)c-2c31 (racemic) [Example 58, (rac)-4-chloro-7-{3-[(6-fluoronaphthalen-1-yl)oxy]propyl}-2,3-dimethyl-14-(2,2,2-trifluoroethyl)-10,11,12,13,14,15-hexahydro-2H-pyrazolo[3′,4′:8,9][1,6]diazacycloundecino[10,11,1-hi]indole-8-carboxylic Acid] | 530 | 1720 | 683 | 340 |  |  |  | 
2 |  | 330 |  |  |  |  |  | CCc1c2c(nn1C)CN(CC(F)(F)F)CCCCn1c(C(=O)O)c(CCCOc3cccc4cc(F)ccc34)c3ccc(Cl)c-2c31 (racemic) [Example 61, (rac) 4-chloro-3-ethyl-7-{3-[(6-fluoronaphthalen-1-yl)oxy]propyl}-2-methyl-14-(2,2,2-trifluoroethyl)-10,11,12,13,14,15-hexahydro-2H-pyrazolo[3′,4′:8,9][1,6]diazacycloundecino[10,11,1-hi]indole-8-carboxylic Acid] |  | 7150 | 1870 | 540 |  |  |  | 
3 |  |  |  | 380 | 610 | 980 |  | Cc1c2c(nn1C)OCCCCCn1c(C(=O)O)c(CCCOc3cccc4cc(F)ccc34)c3ccc(Cl)c-2c31 (racemic) [Example 83, (rac)-4-chloro-7-{3-[(6-fluoronaphthalen-1-yl)oxy]propyl}-2,3-dimethyl-11,12,13,14-tetrahydro-2H,10H-pyrazolo[3′,4′:2,3][1,6]oxazacycloundecino[4,5,6-hi]indole-8-carboxylic Acid] |  |  |  |  | 1100 | 7900 | 730 | 660
4 |  |  |  | 1100 | 690 | 1800 |  | Cc1c2c(nn1C)COCC(F)(F)CCn1c(C(=O)O)c(CCCOc3cccc4ccccc34)c3ccc(Cl)c-2c31 (single isomer, unassigned; enantiomer 1) [Example 56, 4-chloro-12,12-difluoro-2,3-dimethyl-7-{3-[(naphthalen-1-yl)oxy]propyl}-2,10,11,12,13,15-hexahydropyrazolo[4′,3′:9,10][1,6]oxazacycloundecino[8,7,6-hi]indole-8-carboxylic acid-N-ethylethanamine Salt—Enantiomer 1] |  | 8270 |  |  | 1600 |  | 1770 | 590
5 |  |  |  | 340 | 240 | 490 |  | Cc1c2c(nn1C)CN(CC(F)(F)F)CCCCn1c(C(=O)O)c(CCCOc3cccc4cc(F)ccc34)c3ccc(Cl)c-2c31 (single isomer, unassigned; enantiomer 1) [Example 59, 4-chloro-7-{3-[(6-fluoronaphthalen-1-yl)oxy]propyl}-2,3-dimethyl-14-(2,2,2-trifluoroethyl)-10,11,12,13,14,15-hexahydro-2H-pyrazolo[3′,4′:8,9][1,6]diazacycloundecino[10,11,1-hi]indole-8-carboxylic Acid—Enantiomer 1] |  |  |  |  | 550 | 1120 | 216 | 310

The next lines start with the compound.

Row | Compound | IC50 ([3]; Homo sapiens, SU-DHL-5, 72 h) [nM] | EC50 [4, 10] [nM] | EC50 [6, 11] [nM] | IC50 ([3]; 72 hours) [nM] | EC50 [4, 14] [nM] | EC50 [6, 15] [nM] | IC50 [8] [nM] | IC50 [1, 9] [nM] | IC50 ([2]; 72 h) [nM] | IC50 ([5]; Homo sapiens, AMO1, 72 h) [nM] | IC50 [7, 12] [nM] | IC50 [1, 13] [nM] | IC50 ([2]; 72 hours) [nM] | IC50 ([5]; 72 hours) [nM] | IC50 [7, 16] [nM]
6 | CCc1c2c(nn1C)CCCCCCn1c(C(=O)O)c(CCCOc3cccc4cc(F)ccc34)c3ccc(Cl)c-2c31 (racemic) [Example 54, (rac)-4-chloro-3-ethyl-7-{3-[(6-fluoronaphthalen-1-yl)oxy]propyl}-2-methyl-10,11,12,13,14,15-hexahydro-2H-pyrazolo[4′,3′:4,5]azacycloundecino[3,2,1-hi]indole-8-carboxylic Acid] | 430 | 600 | 520 |  |  |  |  | 740 | 2210 | 1350 | 670 |  |  |  | 
7 | CCc1c2c(nn1C)CCCCCCn1c(C(=O)O)c(CCCOc3cccc4ccccc34)c3ccc(Cl)c-2c31 (single isomer, unassigned; enantiomer 1) [Example 52, (+)-4-chloro-3-ethyl-2-methyl-7-{3-[(naphthalen-1-yl)oxy]propyl}-10,11,12,13,14,15-hexahydro-2H-pyrazolo[4′,3′:4,5]azacycloundecino[3,2,1-hi]indole-8-carboxylic acid-N-ethylethanamine Salt—Enantiomer 1] |  |  |  |  | 370 |  |  |  |  |  |  |  | 5250 | 1440 | 320
8 | CCc1c2c(nn1C)CN(C)CCCCn1c(C(=O)O)c(CCCOc3cccc4cc(F)ccc34)c3ccc(Cl)c-2c31 (single isomer, unassigned; enantiomer 2) [Example 7, 4-chloro-3-ethyl-7-{3-[(6-fluoronaphthalen-1-yl)oxy]propyl}-2,14-dimethyl-10,11,12,13,14,15-hexahydro-2H-pyrazolo[3′,4′:8,9][1,6]diazacycloundecino[10,11,1-hi]indole-8-carboxylic Acid (Enantiomer 2)] |  |  |  | 4200 | 11000 | 16000 | 8630 |  |  |  |  | 8300 |  | 11100 | 7100
9 | CCc1nn(C)c2c1-c1c(Cl)ccc3c(CCCOc4cccc5cc(F)ccc45)c(C(=O)O)n(c13)CCCCN(C)C2 (single isomer, unassigned; enantiomer 2) [Example 41, 4-chloro-3-ethyl-7-{3-[(6-fluoronaphthalen-1-yl)oxy]propyl}-1,14-dimethyl-10,11,12,13,14,15-hexahydro-1H-pyrazolo[3′,4′:8,9][1,6]diazacycloundecino[10,11,1-hi]indole-8-carboxylic Acid (Enantiomer 2)] |  |  |  | 2700 | 2800 | 9400 | 4890 |  |  |  |  | 12000 |  | 14900 | 4000
10 | CCc1nn(CCN2CCOCC2)c2c1-c1c(Cl)ccc3c(CCCOc4cccc5ccccc45)c(C(=O)O)n(c13)C/C=C\CN(C)C2 (single isomer, unassigned; enantiomer 2) [Example 44, (11Z)-4-chloro-3-ethyl-14-methyl-1-[2-(morpholin-4-yl)ethyl]-7-{3-[(naphthalen-1-yl)oxy]propyl}-10,13,14,15-tetrahydro-1H-pyrazolo[3′,4′:8,9][1,6]diazacycloundecino[10,11,1-hi]indole-8-carboxylic Acid-Ammonia Salt (Enantiomer 2)] |  |  |  | 7200 | 9400 | 13000 | 11700 |  |  |  |  | 15000 |  | 15500 | 8100
11 | CCc1c2c(nn1C)CCCCCCn1c(C(=O)O)c(CCCOc3cccc4ccccc34)c3ccc(Cl)c-2c31 (single isomer, unassigned; enantiomer 2) [Example 53, (−) 4-chloro-3-ethyl-2-methyl-7-{3-[(naphthalen-1-yl)oxy]propyl}-10,11,12,13,14,15-hexahydro-2H-pyrazolo[4′,3′:4,5]azacycloundecino[3,2,1-hi]indole-8-carboxylic acid-N-ethylethanamine Salt—Enantiomer 2] |  |  |  |  | 3500 |  |  |  |  |  |  |  | 16800 | 11200 | 2500
